Patent US20210382058A1, “PATIENT SELECTION FOR TREATMENT OF MYC POSITIVE CANCERS WITH INDENOISOQUINOLINES” (Purdue Research Foundation, priority 2020, published 2021)
Where two headings read alike, the source gives them in different places.

Experiments:
human topoisomerase I = target: T1, human topoisomerase I (Homo sapiens, UniProt P11387); conditions: relative topoisomerase I inhibition levels, previously determined, six levels (0 - 5, +++++ = 5); cited from earlier work
T1 sequence (P11387 1-765): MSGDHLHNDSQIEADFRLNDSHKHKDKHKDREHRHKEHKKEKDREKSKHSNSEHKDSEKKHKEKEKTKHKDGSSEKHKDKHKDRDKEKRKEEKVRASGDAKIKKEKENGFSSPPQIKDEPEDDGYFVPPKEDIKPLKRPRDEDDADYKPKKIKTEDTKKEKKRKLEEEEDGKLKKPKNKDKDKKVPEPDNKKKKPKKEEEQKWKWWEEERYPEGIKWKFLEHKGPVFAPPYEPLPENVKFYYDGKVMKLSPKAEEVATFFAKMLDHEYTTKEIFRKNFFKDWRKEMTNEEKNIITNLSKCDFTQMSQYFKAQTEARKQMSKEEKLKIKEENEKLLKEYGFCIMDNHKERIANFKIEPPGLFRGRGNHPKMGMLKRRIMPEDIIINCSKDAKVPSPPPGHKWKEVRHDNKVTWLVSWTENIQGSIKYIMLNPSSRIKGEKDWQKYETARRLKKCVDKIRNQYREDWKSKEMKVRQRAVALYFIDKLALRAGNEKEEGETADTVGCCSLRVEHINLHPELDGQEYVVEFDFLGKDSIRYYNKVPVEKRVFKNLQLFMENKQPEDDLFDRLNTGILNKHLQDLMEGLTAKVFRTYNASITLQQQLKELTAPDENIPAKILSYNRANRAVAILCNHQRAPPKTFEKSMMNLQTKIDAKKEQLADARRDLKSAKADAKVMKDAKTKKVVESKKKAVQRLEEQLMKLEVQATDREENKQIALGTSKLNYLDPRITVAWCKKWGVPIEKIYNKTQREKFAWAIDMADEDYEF

[1] = tested on: MYC protein expression in MCF-7 breast cancer cells; assay: Western blotting of MYC protein level in MCF-7 cells; format: cell-based, human; conditions: Homo sapiens, MCF7; western blotting, MCF-7 cells, 0.5, 1, 2, and 4 μM, 24 hours; read-out: MYC Inhibition
Experimental: MCF-7 cells were incubated with each compound at four concentrations (0.5, 1, 2, and 4 μM) for 24 hours, and the MYC protein levels were measured (FIG. 3A and FIGS. 12 A to 12 F).
Cells were incubated at 37° C. with 5% CO2.
The gels were cut into strips that contained the proteins of interest and transferred to nitrocellulose membrane (I323002, Invitrogen) using an iBlot 2 Dry Transfer Device (Invitrogen). Immunoblotting was carried out according to standard procedures using the ECL detection method. The membrane was hybridized with the following antibodies: monoclonal anti-MYC (1:1000 dilution; rabbit, Cell Signaling Technology), monoclonal anti-GAPDH (1:2000 dilution; rabbit, Cell Signaling Technology).

NCI-60 cancer cell lines = assay: NCI-60 cancer cell line drug screen (GI50, MGM); format: cell-based, human; conditions: Homo sapiens; for mean GI50 across NCI-60 panel (MGM): average of GI50 values across the entire panel of NCI-60 cancer cell lines
Experimental: Cancer cells were incubated with the test compounds at five concentrations ranging from 100 μM to 10 nM for 48 h. […] The approximate average of GI50 values across the entire panel of NCI-60 cancer cell lines for each compound was recorded as the MGM value.

[2] = A549, Non-Small Cell Lung Cancer, A549/ATCC, read-out: Antiproliferative Activities [GI50 (μM)]
[3] = CCRF-CEM, Leukemia, CCRF-CEM, read-out: Antiproliferative Activities [GI50 (μM)]
[4] = COLO 205, Colon Cancer, COLO 205, read-out: Antiproliferative Activities [GI50 (μM)]
[5] = HCC 2998, Colon Cancer, HCC-2998, read-out: Antiproliferative Activities [GI50 (μM)]
[6] = HCT-116, Colon Cancer, HCT-116, read-out: Antiproliferative Activities [GI50 (μM)]
[7] = HL-60, Leukemia, HL-60(TB), read-out: Antiproliferative Activities [GI50 (μM)]
[8] = HOP-62, Non-Small Cell Lung Cancer, HOP-62, read-out: Antiproliferative Activities [GI50 (μM)]
[9] = HOP-92, Non-Small Cell Lung Cancer, HOP-92, read-out: Antiproliferative Activities [GI50 (μM)]
[10] = K562, Leukemia, K-562, read-out: Antiproliferative Activities [GI50 (μM)]
[11] = Leukemia, SR, read-out: Antiproliferative Activities [GI50 (μM)]
[12] = MOLT-4, Leukemia, MOLT-4, read-out: Antiproliferative Activities [GI50 (μM)]
[13] = NCI-H23, Non-Small Cell Lung Cancer, NCI-H23, read-out: Antiproliferative Activities [GI50 (μM)]
[14] = NCI-H226, Non-Small Cell Lung Cancer, NCI-H226, read-out: Antiproliferative Activities [GI50 (μM)]
[15] = NCI-H460, Non-Small Cell Lung Cancer, NCI-H460, read-out: Antiproliferative Activities [GI50 (μM)]
[16] = NCI-H522, Non-Small Cell Lung Cancer, NCI-H522, read-out: Antiproliferative Activities [GI50 (μM)]
[17] = RPMI-8226, Leukemia, RPMI-8226, read-out: Antiproliferative Activities [GI50 (μM)]
[18] = EKVX, Non-Small Cell Lung Cancer, EKVX, read-out: Antiproliferative Activities [GI50 (μM)]
[19] = NCI-H322M, Non-Small Cell Lung Cancer, NCI-H322M, read-out: Antiproliferative Activities [GI50 (μM)]

SMILES	Top1 Inhibiton (human topoisomerase I)	minimal effective concentration [1] [µM]	GI50 (NCI-60 cancer cell lines; [2]) [µM]	GI50 (NCI-60 cancer cell lines; [3]) [µM]	GI50 (NCI-60 cancer cell lines; [4]) [µM]	GI50 (NCI-60 cancer cell lines; [5]) [µM]	GI50 (NCI-60 cancer cell lines; [6]) [µM]	GI50 (NCI-60 cancer cell lines; [7]) [µM]	GI50 (NCI-60 cancer cell lines; [8]) [µM]	GI50 (NCI-60 cancer cell lines; [9]) [µM]	GI50 (NCI-60 cancer cell lines; [10]) [µM]	GI50 (NCI-60 cancer cell lines; [12]) [µM]	GI50 (NCI-60 cancer cell lines; [13]) [µM]	GI50 (NCI-60 cancer cell lines; [14]) [µM]	GI50 (NCI-60 cancer cell lines; [15]) [µM]	GI50 (NCI-60 cancer cell lines; [16]) [µM]	GI50 (NCI-60 cancer cell lines; [17]) [µM]	mean GI50 across NCI-60 panel (MGM) (NCI-60 cancer cell lines) [nM]	GI50 (NCI-60 cancer cell lines; [18]) [µM]	GI50 (NCI-60 cancer cell lines; [19]) [µM]	further results
COc1cnc2c(c1)C(=O)c1c-2n(CCCN2CCNCC2)c(=O)c2cc(Cl)ccc12 [Compound 1]	+ (weak inhibition, +, MYC expression inhibited at 4.0 μM)	–	–	–	–	–	–	–	–	–	–	–	–	–	–	–	–	–	–	–	–
COc1cnc2c(c1)C(=O)c1c-2n(CCCN2CCN(C)CC2)c(=O)c2cc(Cl)ccc12 [Compound 4]	+ (weak inhibition, +, MYC expression inhibited at 4.0 μM)	–	–	–	–	–	–	–	–	–	–	–	–	–	–	–	–	–	–	–	–
CCNCCCn1c2c(c3ccc(F)cc3c1=O)C(=O)c1cc(OC)cnc1-2 [Compound 7]	++ (medium inhibition, ++, MYC expression inhibited at 2.0 μM, or no clear dose-dependent MYC inhibition)	–	–	–	–	–	–	–	–	–	–	–	–	–	–	–	–	–	–	–	–
COc1cnc2c(c1)C(=O)c1c-2n(CCCN2CCNCC2)c(=O)c2cc(F)ccc12 [Compound 8]	+ (weak inhibition, +, MYC expression inhibited at 4.0 μM)	–	–	–	–	–	–	–	–	–	–	–	–	–	–	–	–	–	–	–	–
COc1cc2c3c(n(CCCNCCO)c(=O)c2cc1OC)-c1cc2c(cc1C3=O)OCO2 [Compound 44]	–	0.5 to 1	–	–	–	–	–	–	–	–	–	–	–	–	–	–	–	–	–	–	GI50 (NCI-60 cancer cell lines; A549, read-out: Antiproliferative Activities [GI50 (μM)]): 0.03 µM; GI50 (NCI-60 cancer cell lines; CCRF-CEM, read-out: Antiproliferative Activities [GI50 (μM)]): < 0.01 µM; GI50 (NCI-60 cancer cell lines; COLO 205, read-out: Antiproliferative Activities [GI50 (μM)]): 0.38 µM; GI50 (NCI-60 cancer cell lines; EKVX, read-out: Antiproliferative Activities [GI50 (μM)]): 0.26 µM; GI50 (NCI-60 cancer cell lines; HCT-116, read-out: Antiproliferative Activities [GI50 (μM)]): 0.07 µM; GI50 (NCI-60 cancer cell lines; HL-60, read-out: Antiproliferative Activities [GI50 (μM)]): < 0.01 µM; GI50 (NCI-60 cancer cell lines; HOP-62, read-out: Antiproliferative Activities [GI50 (μM)]): 0.01 µM; GI50 (NCI-60 cancer cell lines; HOP-92, read-out: Antiproliferative Activities [GI50 (μM)]): 0.83 µM; GI50 (NCI-60 cancer cell lines; K562, read-out: Antiproliferative Activities [GI50 (μM)]): 0.02 µM; GI50 (NCI-60 cancer cell lines; MOLT-4, read-out: Antiproliferative Activities [GI50 (μM)]): < 0.01 µM; GI50 (NCI-60 cancer cell lines; NCI-H23, read-out: Antiproliferative Activities [GI50 (μM)]): < 0.01 µM; GI50 (NCI-60 cancer cell lines; NCI-H226, read-out: Antiproliferative Activities [GI50 (μM)]): 0.21 µM; GI50 (NCI-60 cancer cell lines; NCI-H322M, read-out: Antiproliferative Activities [GI50 (μM)]): 0.05 µM; GI50 (NCI-60 cancer cell lines; NCI-H460, read-out: Antiproliferative Activities [GI50 (μM)]): < 0.01 µM; GI50 (NCI-60 cancer cell lines; NCI-H522, read-out: Antiproliferative Activities [GI50 (μM)]): < 0.01 µM; GI50 (NCI-60 cancer cell lines; RPMI-8226, read-out: Antiproliferative Activities [GI50 (μM)]): 0.01 µM; GI50 (NCI-60 cancer cell lines; read-out: Antiproliferative Activities [GI50 (μM)]): < 0.01 µM; IC50 (NCI-60 cancer cell lines; read-out: MGM): 60 nM
COc1cc2c3c(n(CCCN)c(=O)c2cc1OC)-c1cc2c(cc1C3=O)OCO2 [Compound 45]	+++ (strong inhibition, +++, MYC expression inhibited at 0.5 to 1.0 μM)	2	0.11	< 0.01	0.3	0.1	0.12	0.22	0.06	1.65	0.09	< 0.01	0.13	1.39	0.02	0.07	< 0.01	180	–	–	GI50 (NCI-60 cancer cell lines; [11]): < 0.01 µM
COc1cc2c3c(n(CCCNCCN)c(=O)c2cc1OC)-c1cc2c(cc1C3=O)OCO2 [Compound 46]	+++ (strong inhibition, +++, MYC expression inhibited at 0.5 to 1.0 μM)	4	0.74	< 0.01	0.08	–	0.13	0.25	0.05	3.27	0.28	< 0.01	0.05	0.65	0.43	0.4	0.48	–	2.06	0.53	–
COc1cc2c3c(n(CCCN4CCC(N)CC4)c(=O)c2cc1OC)-c1cc2c(cc1C3=O)OCO2 [Compound 48]	+ (weak inhibition, +, MYC expression inhibited at 4.0 μM)	4	0.65	0.3	1.14	0.14	0.12	> 50	0.42	–	1.59	0.42	0.71	0.66	0.24	13.1	0.2	1020	1.31	1.05	–
COc1cc2c3c(n(CCCN4CCN(C)CC4)c(=O)c2cc1OC)-c1cc2c(cc1C3=O)OCO2 [Compound 49]	+ (weak inhibition, +, MYC expression inhibited at 4.0 μM)	4	18.7	2.44	10.3	< 0.01	1.49	19.5	18	19.8	6.49	< 0.01	11.9	13.9	5.81	15.4	2.39	12000	17.7	15.6	–
COc1cc2c3c(n(CCCNC4=NCCS4)c(=O)c2cc1OC)-c1cc2c(cc1C3=O)OCO2 [Compound 50]	–	2	< 0.01	< 0.01	< 0.01	< 0.01	< 0.01	0.29	< 0.01	< 0.01	< 0.01	< 0.01	0.02	0.05	< 0.01	0.02	0.02	40	2.57	3.18	GI50 (NCI-60 cancer cell lines; [11]): < 0.01 µM
COc1cc2c(=O)n(CCCN3CCOCC3)c3c(c2cc1OCCCN1CCCC1)C(=O)c1cc2c(cc1-3)OCO2 [Compound 55]	++ (medium inhibition, ++, MYC expression inhibited at 2.0 μM, or no clear dose-dependent MYC inhibition)	4	0.11	< 0.01	0.31	3.32	0.16	0.3	0.19	1.66	0.19	< 0.01	0.71	2.12	0.03	0.04	0.25	340	–	1	GI50 (NCI-60 cancer cell lines; [11]): < 0.01 µM
